This is an account of results in patent publication US20230123334A1, “AMINO LIPID COMPOUND, PREPARATION METHOD THEREFOR, AND APPLICATION THEREOF” (SHENZHEN SHENXIN BIOTECHNOLOGY CO., LTD., priority 2020, published 2023).

SMILES strings stand for the structures.

The assay has as its system HEK293 cells. Kind of assay: Preliminary screening as mRNA vectors, EGFP mRNA transfection of HEK293 cells. The assay is classed as cell-based. Particulars: EGFP mRNA 50 ng per well, 96-well plates; percentage of GFP fluorescent cells relative to total number of cells (Hoechst). In outline:
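HEK293 cells in DMEM plus 10% FBS transfected in 96-well format with 50 ng EGFP mRNA per well; Lipofectamine2000 served as positive control. Read-out is the percentage of GFP-fluorescent cells among total cells, counted by Hoechst nuclear stain.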
Regarding `CCCCCCCCCCCCCCCSc1nc(NCCCCCCCCC)nc(NCCN2CCCC2)n1` [Compound D3S15N9], the “Absolute mRNA transfection efficiency in HEK293 cells” value (“Absolute mRNA transfection efficiency” below) worked out at 15.4%.

For `CCCCCCCCCCCCCCCSc1nc(NCCCCCCCCCCC)nc(NCCN2CCCC2)n1` [Compound D3S15N11], the “Absolute mRNA transfection efficiency” value is given as 23.2%.

On to `CCCCCCCCCCCCCCCSc1nc(NCCCCCCCCCCCC)nc(NCCN2CCCC2)n1` [Compound D3S15N12], for which the “Absolute mRNA transfection efficiency” value turned out to be 7.5%.

In the case of `CCCCCCCCCCCCCCCSc1nc(NCCCCCCCCCCCCC)nc(NCCN2CCCC2)n1` [Compound D3S15N13], the “Absolute mRNA transfection efficiency” value is recorded as 3.0%.

`CCCCCCCCCCCCCCCNc1nc(NCCN2CCCC2)nc(SCCCCCCCCCCCCCCC)n1` [Compound D3S15N15]: the “Absolute mRNA transfection efficiency” value amounted to 2.6%.

With `CCCCCCCCCCCCCCCCNc1nc(NCCN2CCCC2)nc(SCCCCCCCCCCCCCCC)n1` [Compound D3S15N16], the “Absolute mRNA transfection efficiency” value is listed as 7.6%.

With `CCCCCCCCCCCCCCCCCCNc1nc(NCCN2CCCC2)nc(SCCCCCCCCCCCCCCC)n1` [Compound D3S15N18], the “Absolute mRNA transfection efficiency” value was 8.5%.

Take `CCCCCCCCCCCCCCCCSc1nc(NCCCCCC)nc(NCCN2CCCC2)n1` [Compound D3S16N6]: the “Absolute mRNA transfection efficiency” value is listed as 96.0%.

As to `CCCCCCCCCCCCCCCCSc1nc(NCCCCCCC)nc(NCCN2CCCC2)n1` [Compound D3S16N7], the “Absolute mRNA transfection efficiency” value was determined as 85.0%.

As to `CCCCCCCCCCCCCCCCSc1nc(NCCCCCCCC)nc(NCCN2CCCC2)n1` [Compound D3S16N8], the “Absolute mRNA transfection efficiency” value is given as 97.7%.

In the case of `CCCCCCCCCCCCCCCCSc1nc(NCCCCCCCCC)nc(NCCN2CCCC2)n1` [Compound D3S16N9], the “Absolute mRNA transfection efficiency” value stood at 92.8%.

Regarding `CCCCCCCCCCCCCCCCSc1nc(NCCCCCCCCCCC)nc(NCCN2CCCC2)n1` [Compound D3S16N11], the “Absolute mRNA transfection efficiency” value amounted to 73.8%.

For `CCCCCCCCCCCCCCCCSc1nc(NCCCCCCCCCCCC)nc(NCCN2CCCC2)n1` [Compound D3S16N12], the “Absolute mRNA transfection efficiency” value amounted to 1.7%.

Consider `CCCCCCCCCCCCCCCCSc1nc(NCCCCCCCCCCCCC)nc(NCCN2CCCC2)n1` [Compound D3S16N13], for which the “Absolute mRNA transfection efficiency” value was determined as 0.4%.

For `CCCCCCCCCCCCCCCCSc1nc(NCCCCCCCCCCCCCCC)nc(NCCN2CCCC2)n1` [Compound D3S16N15], the “Absolute mRNA transfection efficiency” value is 0.0%.

Take `CCCCCCCCCCCCCCCCNc1nc(NCCN2CCCC2)nc(SCCCCCCCCCCCCCCCC)n1` [Compound D3S16N16]: the “Absolute mRNA transfection efficiency” value was found to be 1.1%.

For the compound `CCCCCCCCCCCCCCCCCCNc1nc(NCCN2CCCC2)nc(SCCCCCCCCCCCCCCCC)n1` [Compound D3S16N18], the “Absolute mRNA transfection efficiency” value is listed as 14.1%.

In the case of `CCCCCCCCCCCCCCCCCCSc1nc(NCCCCCC)nc(NCCN2CCCC2)n1` [Compound D3S18N6], the “Absolute mRNA transfection efficiency” value came to 58.9%.

As to `CCCCCCCCCCCCCCCCCCSc1nc(NCCCCCCC)nc(NCCN2CCCC2)n1` [Compound D3S18N7], the “Absolute mRNA transfection efficiency” value came out at 97.2%.

For the compound `CCCCCCCCCCCCCCCCCCSc1nc(NCCCCCCCC)nc(NCCN2CCCC2)n1` [Compound D3S18N8], the “Absolute mRNA transfection efficiency” value was determined as 93.3%.

With `CCCCCCCCCCCCCCCCCCSc1nc(NCCCCCCCCC)nc(NCCN2CCCC2)n1` [Compound D3S18N9], the “Absolute mRNA transfection efficiency” value is listed as 72.3%.

With `CCCCCCCCCCCCCCCCCCSc1nc(NCCCCCCCCCCC)nc(NCCN2CCCC2)n1` [Compound D3S18N11], the “Absolute mRNA transfection efficiency” value stood at 30.9%.

Take `CCCCCCCCCCCCCCCCCCSc1nc(NCCCCCCCCCCCC)nc(NCCN2CCCC2)n1` [Compound D3S18N12]: the “Absolute mRNA transfection efficiency” value is given as 5.2%.

In the case of `CCCCCCCCCCCCCCCCCCSc1nc(NCCCCCCCCCCCCC)nc(NCCN2CCCC2)n1` [Compound D3S18N13], the “Absolute mRNA transfection efficiency” value was determined as 1.0%.

With `CCCCCCCCCCCCCCCCCCSc1nc(NCCCCCCCCCCCCCCC)nc(NCCN2CCCC2)n1` [Compound D3S18N15], the “Absolute mRNA transfection efficiency” value turned out to be 0.1%.

With `CCCCCCCCCCCCCCCCCCSc1nc(NCCCCCCCCCCCCCCCC)nc(NCCN2CCCC2)n1` [Compound D3S18N16], the “Absolute mRNA transfection efficiency” value is listed as 0.5%.

On to `CCCCCCCCCCCCCCCCCCNc1nc(NCCN2CCCC2)nc(SCCCCCCCCCCCCCCCCCC)n1` [Compound D3S18N18], for which the “Absolute mRNA transfection efficiency” value is given as 0.1%.

For `CCCCCCNc1nc(NCCN2CCCCC2)nc(SCCCCCC)n1` [Compound D4S6N6], the “Absolute mRNA transfection efficiency” value is recorded as 0.3%.

For the compound `CCCCCCCNc1nc(NCCN2CCCCC2)nc(SCCCCCC)n1` [Compound D4S6N7], the “Absolute mRNA transfection efficiency” value stood at 0.0%.

`CCCCCCCCNc1nc(NCCN2CCCCC2)nc(SCCCCCC)n1` [Compound D4S6N8]: the “Absolute mRNA transfection efficiency” value stood at 0.3%.

In the case of `CCCCCCCCCNc1nc(NCCN2CCCCC2)nc(SCCCCCC)n1` [Compound D4S6N9], the “Absolute mRNA transfection efficiency” value is listed as 1.1%.

In the case of `CCCCCCCCCCCNc1nc(NCCN2CCCCC2)nc(SCCCCCC)n1` [Compound D4S6N11], the “Absolute mRNA transfection efficiency” value came to 0.9%.

Take `CCCCCCCCCCCCNc1nc(NCCN2CCCCC2)nc(SCCCCCC)n1` [Compound D4S6N12]: the “Absolute mRNA transfection efficiency” value amounted to 0.7%.

`CCCCCCCCCCCCCNc1nc(NCCN2CCCCC2)nc(SCCCCCC)n1` [Compound D4S6N13]: the “Absolute mRNA transfection efficiency” value worked out at 2.1%.

As to `CCCCCCCCCCCCCCCNc1nc(NCCN2CCCCC2)nc(SCCCCCC)n1` [Compound D4S6N15], the “Absolute mRNA transfection efficiency” value came out at 0.4%.

Regarding `CCCCCCCCCCCCCCCCNc1nc(NCCN2CCCCC2)nc(SCCCCCC)n1` [Compound D4S6N16], the “Absolute mRNA transfection efficiency” value stood at 0.5%.

As for `CCCCCCCCCCCCCCCCCCNc1nc(NCCN2CCCCC2)nc(SCCCCCC)n1` [Compound D4S6N18], the “Absolute mRNA transfection efficiency” value turned out to be 1.8%.

Turning to `CCCCCCSc1nc(NCCN2CCCCC2)nc(SCCCCCC)n1` [Compound D4S6S6], the “Absolute mRNA transfection efficiency” value is 0.9%.

Regarding `CCCCCCCSc1nc(NCCN2CCCCC2)nc(SCCCCCC)n1` [Compound D4S6S7], the “Absolute mRNA transfection efficiency” value was 1.2%.

For the compound `CCCCCCCCSc1nc(NCCN2CCCCC2)nc(SCCCCCC)n1` [Compound D4S6S8], the “Absolute mRNA transfection efficiency” value was 0.5%.

For `CCCCCCCCCSc1nc(NCCN2CCCCC2)nc(SCCCCCC)n1` [Compound D4S6S9], the “Absolute mRNA transfection efficiency” value is on record as 0.7%.

As for `CCCCCCCCCCSc1nc(NCCN2CCCCC2)nc(SCCCCCC)n1` [Compound D4S6S10], the “Absolute mRNA transfection efficiency” value is given as 0.3%.

Take `CCCCCCCCCCCCSc1nc(NCCN2CCCCC2)nc(SCCCCCC)n1` [Compound D4S6S12]: the “Absolute mRNA transfection efficiency” value is on record as 0.2%.

As for `CCCCCCCCCCCCCCSc1nc(NCCN2CCCCC2)nc(SCCCCCC)n1` [Compound D4S6S14], the “Absolute mRNA transfection efficiency” value is recorded as 5.3%.

As to `CCCCCCCCCCCCCCCSc1nc(NCCN2CCCCC2)nc(SCCCCCC)n1` [Compound D4S6S15], the “Absolute mRNA transfection efficiency” value is given as 2.0%.
